Patent publication US10172915B2, “Methods and compositions for activation of sirtuins with Annexin A1 peptides” (Duke University, priority 2013, dated 2019)
Values belong to the substance of their own block, whether it stands above or below them. No end group written: not given here.

Experiments:
SIRT3 [1] = test: Myocardial SIRT3 in DHCA rats (Western blot, confocal microscopy); type: in vivo, rat; details: for Expression (44-kDa) and activation (28-kDa) of myocardial SIRT3: 60 min DHCA at 18° C., 2 mg/kg iv, 3 hours post-perfusion, p<0.05 vs vehicle; for SIRT3 level and mitochondrial localization in rat myocardium (confocal): 60 min DHCA, 3 h reperfusion
Protocol: (§1) Proteins were separated by electrophoresis on SDS-PAGE and then transferred onto PVDF-Plus membrane (Millipore). After being blocked with 5% milk, the immunoblots were probed with appropriate antibodies to SIRT3 (Cell Signaling or Abcam), MPP (Santa Cruz), MnSOD, P-AMPK, COXIV, GAPDH (Cell Signaling), and caspase-3 (Cell Signaling, MA) overnight at 4° C. followed by incubation with the corresponding secondary antibodies at room temperature for 1 h. The blots were visualized with the SuperSignal West Dura Extended Duration Substrate (Thermo Scientific) by a gel imaging system (Alpha Innotech).
(§2) Separate groups of animals underwent 60 minutes of DHCA (18° C.) with a similar treatment design, with animals randomly assigned to sham, CPB/DHCA (Vehicle), DHCA+ANXA1sp (ANXA1sp), or DHCA+scrambled peptide (scrPEP). All rats were subjected to 60 minutes DHCA at 18° C. and received either vehicle (1% DMSO saline), ANXA1sp (total 2 mg/kg), or scrPEP (total 2 mg/kg) iv 1 h before CPB and 1 h after reperfusion (FIG. 10C). Sham operated animals were only cannulated/without CPB/DHCA as baseline control. At 3, 6, and 24 h of post-perfusion, heart and serum samples were harvested. Blood samples were collected and stored at −80° C. until analysis. A small portion of heart tissue from each animal was immediately fixed in 10% buffered formalin, embedded in paraffin, and sectioned for immunostaining, confocal colocalization microscopy, and apoptotic TUNEL staining. Myocardial whole-tissue lysates were obtained at the end of each experiment according to the manufacturer's protocol (Affymetrix). The remaining heart tissues were stored at −80° C. FIG. 10 depicts a diagram of the rat surgical model and schematics of the experimental protocols.
Confocal studies were performed as described previously. Paraffin sections were deparaffinized using xylene and descending grades of ethanol, pretreated with microwave irradiation (350 W, for 5 min in 200 ml of 0.1M Citrate buffer, pH 6.0). Tissue sections were incubated with rabbit monoclonal IgG anti-SIRT3 (Cell Signaling) and mouse monoclonal IgG anti-COXIV (Cell Signaling) at 4° C. overnight. After washing, tissue sections were incubated with Alexa555 conjugated donkey anti-mouse IgG and Alexa488 conjugated goat anti-rabbit IgG (Molecular Probes) for 1 h at RT. Images were acquired with a confocal microscope (Zeiss Invert 510 Microscope). The control experiments were performed using mouse IgG and/or rabbit IgG.

NF-κB p65 subunit = test: NF-κB p65 acetylation and NF-κB activity in DHCA rats; type: in vivo, rat
Protocol: FIG. 18. Increased SIRT1 expression with ANXA1sp treatment is also associated with reduced acetylation of NF-κB p65 subunit (at lysine 310 residue) following DHCA in rats. Rats underwent 1 hour DHCA at 18° C. and received either vehicle or ANXA1sp (2 mg/kg, iv) followed by 6 hours reperfusion. Levels of acetylated NF-κB p65 were determined in left ventricular myocardium tissue lysates by Western blot. Results presented as mean±SD (n=4), *p<0.001. DHCA, deep hypothermic circulatory arrest; P65-Ac(K310), lysine 310 acetylated NF-κB p65 subunit. GAPDH used as loading control.
as §2

reactive oxygen species = test: Reactive oxygen species in hearts of DHCA rats (ELISA); type: in vivo, rat; details: 60 min DHCA, 6 h reperfusion
Protocol: (§3) FIG. 15. Increased SIRT3 activity with ANXA1sp treatment is associated with reduced protein lysine acetylation in left ventricular myocardial lysates from rats following 60 min DHCA and 6 h reperfusion (panel A). This included deacetylation of MnSOD (known to increase its reactive oxygen species scavenging activity). Acetylated proteins were immunoprecipitated with anti-acetyl lysine antibody, and deacetylated MnSOD levels were assessed in the supernatant via Western blot (panel B). […] Results presented as mean±SD (n=5/group), *P<0.05. anti-Ac-K, acetylated lysine antibody; IP, immuno-precipitation; WB, Western blot; ROS, reactive oxygen species; MnSOD, manganese superoxide dismutase.
(§4) Separate groups of animals underwent 60 minutes of DHCA (18° C.) with a similar treatment design, with animals randomly assigned to sham, CPB/DHCA (Vehicle), DHCA+ANXA1sp (ANXA1sp), or DHCA+scrambled peptide (scrPEP). All rats were subjected to 60 minutes DHCA at 18° C. and received either vehicle (1% DMSO saline), ANXA1sp (total 2 mg/kg), or scrPEP (total 2 mg/kg) iv 1 h before CPB and 1 h after reperfusion (FIG. 10C). Sham operated animals were only cannulated/without CPB/DHCA as baseline control. At 3, 6, and 24 h of post-perfusion, heart and serum samples were harvested. Blood samples were collected and stored at −80° C. until analysis. […]

[2] = tested on: adult rat ventricular cardiomyocytes with SIRT3 siRNA; test: siRNA knock-down of SIRT3 in ARVCs with simulated IR, rescue; type: cell-based; details: simulated ischemia-reperfusion
Protocol: ARVC siRNA transfection: after 24 h of incubation with AW Medium (Cellutron Cat #M-8034) without antibiotics, ARVCs were transfected with a specific SIRT3-siRNA or a scrambled RNA (scrRNA) as control, according to manufacturer's protocol (Santa Cruz). Transfection efficiency was estimated by Western blotting of the target protein (A). ARVC, adult rat ventricular cardiomyocytes; OGD, oxygen-glucose deprivation; scrR, scrambled RNA; siR, SIRT3 siRNA; SP, ANXA1sp; V, vehicle control; scrR+V, scramble RNA with vehicle control; scrR+SP, scramble RNA with ANXA1sp; siR+V, SIRT3 siRNA with vehicle control; siR+SP, SIRT3 siRNA with ANXA1sp; cTnI, cardiac troponin I measured in supernatant. Results presented as mean±SD (n=3). GAPDH used as loading control.

[3] = tested on: AMP-activated protein kinase (AMPK); test: AMPK phosphorylation in myocardium of DHCA rats; type: in vivo, rat; details: 60 min DHCA, 3 h reperfusion
Protocol: (§5) FIG. 16. […] Results presented as mean±SD (n=5), *P<0.05 and ^#P<0.01. P-AMPK, phosphorylated AMPK. GAPDH used as loading control.
as §2

SIRT3 [4] = test: SIRT3 expression in ARVCs after OGD/reoxygenation (Western blot, confocal microscopy); type: cell-based, rat
Protocol: (§6) After 24 h incubation, ARVCs were pre-treated with known concentrations of ANXA1sp or scrPEP in growth medium for 1 h, and subjected to 2 h oxygen-glucose-deprivation (OGD: DMEM no glucose, 85% N2/10% H2/5% CO2) in a OGD station chamber/Anaerobic System (Farma Scientific), followed by reoxygenation with 10 μM ANXA1sp or scrPEP in growth medium for 3, 6, and 24 h in a 37° C. and 5% CO2 growth chamber, respectively.
as §1
Confocal studies were performed as described previously. MitoTraker Deep Red FM (Invitrogen) was added into culture medium to make the final concentration of 0.4 μM and incubated at 37° C. for 45 min. After being washed, fixed, permeabilized, and blocked, rabbit monoclonal IgG anti-SIRT3 (Abcam) was added at 4° C. for overnight. Cells were subsequently incubated with Alexa-488 conjugated goat anti-rabbit IgG (Molecular Probes) for 1 h at RT. Images were acquired with a confocal microscope (Zeiss Invert 510 Microscope).

[5] = tested on: rats rendered acutely hyperglycemic, cardioplegic arrest; test: Rat CPB/CA model in acutely hyperglycemic rats; type: in vivo; details: blood glucose>300 mg/dl, Dextrose 25%, 5 gm/kg
Protocol: Because of the known effects of hyperglycemia to blunt cardioprotective mechanisms, the effects of ANXA1sp were further tested in rats rendered acutely hyperglycemic (blood glucose>300 mg/dl) through perioperative administration of Dextrose (25%, 5 gm/kg). […] Physiological parameters during the conduct of CPB/CA were similar between treatment groups.

[6] = tested on: mitochondrial protein lysine-acetylation; test: Mitochondrial protein lysine acetylation in ARVCs after OGD/reoxygenation; type: cell-based, rat; details: ARVCs following OGD/reoxygenation
Protocol: as §6

[7] = tested on: AMP-activated protein kinase (AMPK); test: AMPK phosphorylation in ARVCs after OGD/reoxygenation; type: cell-based, rat; details: 2 h OGD, 3 h reoxygenation
Protocol: as §6, §1

myocardial levels of ATP = test: Myocardial ATP levels in DHCA rats; type: in vivo, rat; details: 60 min DHCA, 3 h reperfusion
Protocol: as §5
(§7) Blood samples were collected from each rat at 24 h after CPB/DHCA. Samples were immediately cooled to 4° C. and centrifuged at 3,000 rpm for 10 minutes at 4° C. Serum was collected and stored at −80° C. until assay. Whole cell lysate from heart tissues was obtained according to manufacturer's instruction (Panomics) and used for measurement of pro-inflammatory cytokines IL-6, TNFα and MPO by an ELISA method (Thermo Scientific). Cellular levels of ATP were measured by ELISA (Abeam).

[8] = tested on: protein lysine acetylation; test: Protein lysine acetylation in left ventricular myocardial lysates of DHCA rats; type: in vivo, rat; details: 60 min DHCA, 6 h reperfusion
Protocol: as §3, §4

cellular levels of ATP = test: Cellular ATP levels in ARVCs after OGD/reoxygenation; type: cell-based, rat
Protocol: as §6, §7

[9] = tested on: rats, deep hypothermic circulatory arrest; test: Rat model of deep hypothermic circulatory arrest (DHCA), myocardial injury; type: in vivo; details: 60 min DHCA
Protocol: as §2
The following endpoints were assessed: plasma cTnI and heart-type fatty acid binding protein (HFABP, ELISA, Life Diagnosis); myocardial apoptosis as levels of cleaved caspase-3 (Western blot) and TUNEL assays (Roche); and echocardiographic left ventricular function. Myocardial levels of TNFα, IL-6, and myeloperoxidase (MPO) were analyzed by ELISA. SIRT3 and cytochrome c were measured in isolated mitochondria by Western blot.
Blood samples were collected from each rat at 24 h after CPB/DHCA. […] Cellular levels of ATP were measured by ELISA (Abeam).
TUNEL assay was performed using the In Situ Cell Death Detection Kit (Roche Molecular Biochemicals) according to manufacturer's protocol. […] The reaction was terminated with stop solution and fluorescent apoptotic signal was detected using a fluorescence microscope (Zeiss LSM 510 inverted confocal). Ten fields of each tissue section were randomly chosen and a total of 50 cells per field were counted. […]

[10] = tested on: rat coronary ligation models; details: cited from earlier work
[11] = tested on: ventricular contractile function ex vivo; details: cited from earlier work

Phosphorylation of AMPK [7]: increased phosphorylation of AMPK
Substance: Ac-Gln-Ala-Trp [ANXA1sp]
Expression (44-kDa) and activation (28-kDa) of myocardial SIRT3 (SIRT3 [1]): significantly restored expression and activation of SIRT3
SIRT3 level and mitochondrial localization in rat myocardium (confocal) (SIRT3 [1]): robustly increased SIRT3 and was predominantly localized in the mitochondria
Acetylation of NF-κB p65 (K310) (NF-κB p65 subunit; 1 hour DHCA, 2 mg/kg iv, 6 hours reperfusion): attenuated acetylation of NF-kB p65
NF-κB transcriptional activity (NF-κB p65 subunit; DHCA rats): suppressed NF-κB transcriptional activity
NF-κB-mediated gene expression of TNFα (NF-κB p65 subunit; DHCA rats): significantly down-regulated
Cellular levels of reactive oxygen species in hearts (reactive oxygen species): decreased cellular levels of reactive oxygen species
Rescue of increased cell necrosis and apoptosis after SIRT3 knock down [2]: partially rescued
Phosphorylation of AMPK (P-AMPK) in left ventricular myocardial lysates [3]: increased phosphorylation of AMP-activated protein kinase
SIRT3 full-length and short form proteins in cell lysates (SIRT3 [4]; ARVCs after OGD/reoxygenation, Western blot): significantly increased SIRT3 in both full-length and short form proteins
SIRT3 expression in isolated mitochondria (SIRT3 [4]; ARVCs subjected to OGD): increased SIRT3 expression in isolated mitochondria
SIRT3 in mitochondria by confocal microscopy (SIRT3 [4]; cultured ARVCs, 10 μM, 2 h OGD, 3 h reoxygenation): significantly increased in mitochondria
Hyperglycemic exacerbation of myocardial injury and inflammation [5]: significantly attenuated
Protein acetylation [6]: significant reduction in protein acetylation
Myocardial levels of ATP (myocardial levels of ATP): increased myocardial levels of ATP
Protein acetylation in myocardial tissue homogenates [8]: significant reduction of protein acetylation
ATP concentrations (cellular levels of ATP): increased ATP concentrations
Cleaved caspase-3 activity by Western blot [9]: significantly decreased
Myocardial apoptosis by TUNEL staining ([9]; 24 h post-reperfusion): significantly decreased myocardial apoptosis
Serum cTnI (ELISA) ([9]; multiple reperfusion time points): significantly decreased

Substance: Ac-W^10Q^11A^12 [scrPEP, reference compound]
Expression (44-kDa) and activation (28-kDa) of myocardial SIRT3 (SIRT3 [1]): had no such effects
SIRT3 level and mitochondrial localization in rat myocardium (confocal) (SIRT3 [1]): has no such effects

Substance: Ac-Ala-Met-Val-Ser-Glu-Phe-Leu-Lys-Gln-Ala-Trp-Phe-Ile-Glu-Asn-Glu-Glu-Gln-Glu-Tyr-Val-Gln-Tyr-Val-Lys (Ac-AMVSEFLKQAWFIENEEQEYVQYVK) [Ac2-26, 25mer peptide derived from annexin 1, commercially available]
Neutrophil dependent myocardial necrosis [10]: inhibits neutrophil dependent myocardial necrosis
Post-ischemic recovery of ventricular contractile function [11]: improves post-ischemic recovery of ventricular contractile function
